Results on one compound are retold here after ChEMBL document CHEMBL3232901, “Design, synthesis, and pharmacological evaluation of fluorinated tetrahydrouridine derivatives as inhibitors of cytidine deaminase” (J Med Chem, 2014).

The nature of data set [1]: Chemical stability in simulated gastric fluid assessed as compound remaining after 10 mins at pH 1.2 at 37 degC. It counts as ADME, physicochemical, Stomach. Conditions: read-out: Stability.
A short description of data set [2]: Chemical stability in simulated gastric fluid assessed as compound remaining after 2 hrs at pH 1.2 at 37 degC. The class given is ADME, physicochemical, Stomach. Conditions: read-out: Stability.

Molecules are shown by their SMILES.

For `O=C1NC(O)CCN1[C@@H]1O[C@H](CO)[C@@H](O)[C@H]1O` (mixture of isomers) [TETRAHYDROURIDINE], in data set [1], the remaining at 10 min is 50%. For the same compound, the remaining at 2 h in data set [2] was 15%.
